The source of these data is PubChem BioAssay (NCI).

Test systems include HCT-15 colon; NCI-H23 lung; HOP-92 NSCLC; 786-0 renal; SNB-75 CNS; EKVX NSCLC; A498 renal; NCI-H522 lung; HS 578T breast; SK-MEL-28 melanoma; OVCAR-5 ovarian; LOX IMVI melanoma.
Common to all, as to assay: NCI-60 cell line screen, 48 h

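Where inhibition never reached the appropriate level, the endpoint shown equals the highest concentration tested. Otherwise, values were interpolated linearly from a five-concentration, 48-hour dose response in 96-well plates. The concentration for full growth arrest is given as TGI.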

`c1ccc2c3c(c(N4CCNCC4)nc2c1)CCCC3`: the TGI was 29.3 µM in the test on HCT-15 colon; 28 µM with NCI-H23 lung; 27.2 µM in the test with HOP-92 NSCLC; 27.7 µM in the test on 786-0 renal; 27 µM with SNB-75 CNS; 21.1 µM in the test with EKVX NSCLC. Besides, the TGI with A498 renal is 27.6 µM; in the test with NCI-H522 lung, 31.5 µM; with HS 578T breast it was > 100 µM; in the test with SK-MEL-28 melanoma, 31.1 µM; in the test with OVCAR-5 ovarian, 26.9 µM; with LOX IMVI melanoma, 27.2 µM.

For the compound `NC(=O)c1ccc(N)nc1`, the TGI with HCT-15 colon is > 400 µM; with NCI-H23 lung, > 400 µM; in the test with HOP-92 NSCLC, > 400 µM; in the test with 786-0 renal, > 400 µM; in the test with SNB-75 CNS, > 125 µM; with EKVX NSCLC, > 400 µM. The TGI in the test on A498 renal, in the test with NCI-H522 lung, with HS 578T breast, in the test with SK-MEL-28 melanoma, with OVCAR-5 ovarian and in the test with LOX IMVI melanoma was > 400 µM in each case.

On to `O=C1CCCc2ccc3c(c21)CC1(Cc2cc4c(cc2C1)CCCC4)C3`, for which the TGI turned out to be 61.3 µM with HCT-15 colon; 49 µM in the test with NCI-H23 lung; 28 µM with HOP-92 NSCLC; 33 µM in the test on 786-0 renal; 65.1 µM in the test with SNB-75 CNS; 81.9 µM in the test with EKVX NSCLC. Besides, the TGI in the test on A498 renal was > 100 µM; in the test with NCI-H522 lung it was 35.5 µM; in the test with HS 578T breast it was 81.4 µM; in the test on SK-MEL-28 melanoma, 63.7 µM; with OVCAR-5 ovarian, 72.3 µM; in the test on LOX IMVI melanoma it was 28.5 µM.

For the compound `CS(=O)(=O)c1ccc(C2=C(c3ccccc3)C(=O)OC2)cc1`, the TGI in the test with HCT-15 colon, with NCI-H23 lung, with HOP-92 NSCLC, in the test with 786-0 renal, in the test with SNB-75 CNS and with EKVX NSCLC was > 100 µM throughout. The TGI with A498 renal, in the test on NCI-H522 lung, in the test with HS 578T breast, in the test on SK-MEL-28 melanoma, with OVCAR-5 ovarian and in the test on LOX IMVI melanoma was > 100 µM in each case.

For `COc1ccc(/C=C/C=C2C(=O)NC(=S)NC2=O)cc1`, the TGI with HCT-15 colon was 8.68 µM; with NCI-H23 lung it was 21 µM; in the test on HOP-92 NSCLC, 25.4 µM; with 786-0 renal, 5.47 µM; in the test with SNB-75 CNS it was 47.2 µM; in the test on EKVX NSCLC, 25.7 µM. Also, the TGI in the test with A498 renal is > 100 µM; in the test on HS 578T breast, > 56.6 µM; in the test on SK-MEL-28 melanoma it was 3.45 µM; in the test with OVCAR-5 ovarian it was 47.1 µM; in the test with LOX IMVI melanoma, 3.97 µM.

`CC(C)=CCC[C@@H](C)c1c(O)c(O)c(C)c2nc3ccccc3nc12`: the TGI turned out to be 15 µM in the test on HCT-15 colon; 8.61 µM in the test with NCI-H23 lung; 5.11 µM in the test with HOP-92 NSCLC; 12.1 µM in the test on 786-0 renal; 6.8 µM with SNB-75 CNS; 14.8 µM in the test with EKVX NSCLC. Besides, the TGI in the test on A498 renal amounted to 7.97 µM; in the test on HS 578T breast, 8.37 µM; with SK-MEL-28 melanoma it was 23.8 µM; in the test with OVCAR-5 ovarian, 17.6 µM; with LOX IMVI melanoma, 16.8 µM.

Take `Cc1cc([C@H](C#N)c2nc3ccccc3s2)nc(Cl)n1`: the TGI in the test on HCT-15 colon came to 16.3 µM; in the test on NCI-H23 lung it was 15 µM; with HOP-92 NSCLC, 8.76 µM; in the test with 786-0 renal it was 29.8 µM; with SNB-75 CNS it was 6.54 µM; in the test on EKVX NSCLC, 59.4 µM. In addition, the TGI in the test with A498 renal was 31.3 µM; in the test on HS 578T breast, 33.3 µM; with SK-MEL-28 melanoma, 39.1 µM; with OVCAR-5 ovarian, > 100 µM; with LOX IMVI melanoma, 10.4 µM.

With `CN(CCN(C)Cc1ccc(Cl)c(Cl)c1)CCN1CCCC1`, the TGI in the test on HCT-15 colon was > 100 µM; with NCI-H23 lung it was > 100 µM; with HOP-92 NSCLC, 82.1 µM; in the test with 786-0 renal, 64.6 µM; in the test on SNB-75 CNS, > 90.5 µM; in the test with EKVX NSCLC, > 100 µM. For the same compound, the TGI was 35.3 µM in the test on A498 renal; 46.9 µM in the test with NCI-H522 lung; > 45 µM with HS 578T breast; 20.3 µM with SK-MEL-28 melanoma; > 100 µM in the test with OVCAR-5 ovarian; > 58.6 µM in the test with LOX IMVI melanoma.

Regarding `C=CCn1c(-c2ccc(N=NNc3ccc(-c4n[nH]c(=S)n4CC=C)cc3)cc2)n[nH]c1=S`, the TGI in the test with HCT-15 colon is > 100 µM; with NCI-H23 lung it was > 100 µM; in the test on HOP-92 NSCLC, 39.1 µM; with 786-0 renal, 25.4 µM; in the test on SNB-75 CNS, 10.8 µM; with EKVX NSCLC, > 100 µM. Also, the TGI with A498 renal, with NCI-H522 lung, in the test on HS 578T breast, in the test on SK-MEL-28 melanoma, in the test on OVCAR-5 ovarian and in the test on LOX IMVI melanoma was > 100 µM each time.

Take `CSc1nc(NC2CC2)c2c(n1)Sc1nc3ccccc3n1N=C2`: the TGI in the test on HCT-15 colon was > 100 µM; in the test on NCI-H23 lung, > 100 µM; in the test on HOP-92 NSCLC it was 73.9 µM; in the test with 786-0 renal it was 21 µM; in the test with EKVX NSCLC, 98.7 µM; with A498 renal, 60.8 µM. Further, the TGI in the test on NCI-H522 lung is > 100 µM; in the test with HS 578T breast, 24.2 µM; with SK-MEL-28 melanoma, > 100 µM; with OVCAR-5 ovarian, > 100 µM; in the test with LOX IMVI melanoma, > 100 µM.

Regarding `O=C(NCCc1ccc(F)cc1)c1cc(/C=C/c2cc(O)ccc2O)ccc1O`, the TGI amounted to 6.32 µM with HCT-15 colon; 13.3 µM in the test on NCI-H23 lung; 3.97 µM in the test with HOP-92 NSCLC; 5.03 µM with 786-0 renal; 14.4 µM in the test on SNB-75 CNS; 6.38 µM in the test on EKVX NSCLC. The TGI in the test on A498 renal was 14.1 µM; in the test on NCI-H522 lung it was 4.88 µM; with HS 578T breast, > 100 µM; in the test with SK-MEL-28 melanoma, > 25.3 µM; in the test with OVCAR-5 ovarian it was 22.3 µM; with LOX IMVI melanoma it was 14 µM.
